Data: patent publication US7932270B2 (Cytokinetics, Inc., priority 2006, dated 2011)

Target: T1, chicken gizzard smooth muscle myosin subfragment-1 chemically crosslinked to cardiac or skeletal actin (Gallus gallus, UniProt P10587)
T1 construct: chicken gizzard smooth muscle myosin subfragment-1; from tissue; host or cells: chicken gizzard
Experiment: Smooth muscle myosin ATPase dose response assay (pyruvate kinase/horseradish peroxidase/pyruvate oxidase-coupled, amplex red fluorescence)
Assay type: biochemical
Conditions: read-out: IC50 Arithmetic Mean
Outline: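 Lead-optimization format: ATPase coupled via pyruvate kinase, pyruvate oxidase and peroxidase, pH 7.00 at 22° C, with 0.15 mM ATP, 100 mM KCl, 2 mM MgCl2, 2 mM phosphate and 0.1 mM amplex red (final). Crosslinked S1 titrated empirically for set hydrolysis rate; fluorescence (ex 480/em 615 nm) dose curves fit 4-parameter for IC50.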

T1 sequence (P02607 2-151): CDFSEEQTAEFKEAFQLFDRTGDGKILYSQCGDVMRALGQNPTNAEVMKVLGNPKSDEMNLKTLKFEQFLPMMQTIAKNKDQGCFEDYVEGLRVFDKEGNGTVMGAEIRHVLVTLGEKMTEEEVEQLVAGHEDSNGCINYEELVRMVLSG
T1 sequence (P10587 84-789): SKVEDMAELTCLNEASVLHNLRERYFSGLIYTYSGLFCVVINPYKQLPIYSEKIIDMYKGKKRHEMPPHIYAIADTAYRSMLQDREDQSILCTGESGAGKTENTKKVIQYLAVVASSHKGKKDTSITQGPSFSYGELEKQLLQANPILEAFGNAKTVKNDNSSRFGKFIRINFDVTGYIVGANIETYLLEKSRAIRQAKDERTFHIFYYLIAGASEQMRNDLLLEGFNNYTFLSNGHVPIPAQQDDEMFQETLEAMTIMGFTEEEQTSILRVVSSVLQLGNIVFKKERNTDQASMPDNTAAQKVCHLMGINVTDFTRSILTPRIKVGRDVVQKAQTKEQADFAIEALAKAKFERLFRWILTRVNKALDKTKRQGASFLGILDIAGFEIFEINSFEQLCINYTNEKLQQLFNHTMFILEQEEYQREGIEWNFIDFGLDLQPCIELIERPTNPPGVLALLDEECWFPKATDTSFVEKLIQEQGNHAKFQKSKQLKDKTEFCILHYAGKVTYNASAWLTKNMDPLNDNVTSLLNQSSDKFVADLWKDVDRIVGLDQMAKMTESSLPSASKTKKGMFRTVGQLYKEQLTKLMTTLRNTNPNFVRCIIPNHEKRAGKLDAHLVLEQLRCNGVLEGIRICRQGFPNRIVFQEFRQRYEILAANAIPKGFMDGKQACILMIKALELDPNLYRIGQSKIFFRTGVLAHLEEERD

Row | IC50 | Structure (SMILES)
1 | 110 nM | N#Cc1ccccc1-c1nc(NCCc2cccc(F)c2)c(C(=O)NC[C@H]2CCCN2C(=O)C(O)CO)cc1F (stereo partly drawn) [N-{[(2R)-1-(2,3-dihydroxypropanoyl)pyrrolidin-2-yl]methyl}(6-(2-cyanophenyl)-5-fluoro-2-{[2-(3-fluorophenyl)ethyl]amino}(3-pyridyl))carboxamide]
2 | 52 nM | C[C@H](N)C(=O)N1CCCC[C@@H]1CNC(=O)c1ccc(-c2ccccc2C#N)nc1NCCc1cccc(F)c1 [N-{[(2R)-1-((2S)-2-aminopropanoyl)(2-piperidyl)]methyl}(6-(2-cyanophenyl)-2-{[2-(3-fluorophenyl)ethyl]amino}(3-pyridyl))carboxamide]
3 | 428 nM | [N-]=[N+]=NCc1cc(C(=O)NCc2cccnc2)c(NCCc2cccc(F)c2)nc1-c1ccccc1
4 | 29 nM | N#Cc1ccccc1-c1ccc(C(=O)NCc2cccnc2)c(NCCc2cccs2)n1 [{6-(2-cyanophenyl)-2-[(2-(2-thienyl)ethyl)amino](3-pyridyl)}-N-(3-pyridylmethyl)carboxamide]
5 | 121 nM | NCc1cccc(CNC(=O)c2ccc(-c3cn[nH]c3)nc2NCCc2cccc(F)c2)n1 [N-{[6-(aminomethyl)(2-pyridyl)]methyl}(2-{[2-(3-fluorophenyl)ethyl]amino}-6-pyrazol-4-yl(3-pyridyl))carboxamide]
6 | 1980 nM | N#Cc1ccccc1-c1ccc(C(=O)NCc2ccc(F)c(F)c2)c(NCCc2cccc(F)c2)n1 [N-[(3,4-difluorophenyl)methyl](6-(2-cyanophenyl)-2-{[2-(3-fluorophenyl)ethyl]amino}(3-pyridyl))carboxamide]
7 | 60 nM | N#Cc1ccccc1-c1ccc(C(=O)NC[C@H]2CCN2C(=O)CCCO)c(NCCc2cccc(F)c2)n1 [N-{[(2R)-1-(4-hydroxybutanoyl)azetidin-2-yl]methyl}(6-(2-cyanophenyl)-2-{[2-(3-fluorophenyl)ethyl]amino}(3-pyridyl))carboxamide]
8 | 269 nM | N[C@@H](CO)C(=O)N1CCCC1CNC(=O)c1cc(F)c(-c2cc[nH]n2)nc1NCCc1cccc(F)c1 (stereo partly drawn) [N-{[(2R)-1-((2S)-2-amino-3-hydroxypropanoyl)pyrrolidin-2-yl]methyl}(5-fluoro-2-{[2-(3-fluorophenyl)ethyl]amino}-6-pyrazol-3-yl(3-pyridyl))carboxamide]
9 | 2130 nM | CC(=O)c1ccc(-c2ccc(C(=O)NCc3cccnc3)c(NCCc3ccccn3)n2)cc1 [{6-(4-acetylphenyl)-2-[(2-(2-pyridyl)ethyl)amino](3-pyridyl)}-N-(3-pyridylmethyl)carboxamide]
10 | 99 nM | N#Cc1ccccc1-c1ccc(C(=O)NC[C@H]2CCCN2C(=O)CCCCN)c(NCCc2cccc(F)c2)n1 [N-{[(2R)-1-(5-aminopentanoyl)pyrrolidin-2-yl]methyl}(6-(2-cyanophenyl)-2-{[2-(3-fluorophenyl)ethyl]amino}(3-pyridyl))carboxamide]
11 | 19500 nM | N#Cc1ccccc1-c1ccc(C(=O)NCCN2C(=O)CC[C@@H]2CN)c(NCCc2cccc(F)c2)n1 [N-{2-[(5R)-5-(aminomethyl)-2-oxopyrrolidinyl]ethyl}(6-(2-cyanophenyl)-2-{[2-(3-fluorophenyl)ethyl]amino}(3-pyridyl))carboxamide]
12 | 42 nM | N#Cc1ccccc1-c1nc(NCCc2cccc(F)c2)c(C(=O)NC[C@H]2CCC(=O)N2CCCN)cc1F [N-{[(2R)-1-(3-aminopropyl)-5-oxopyrrolidin-2-yl]methyl}(6-(2-cyanophenyl)-5-fluoro-2-{[2-(3-fluorophenyl)ethyl]amino}(3-pyridyl))carboxamide]
13 | 8180 nM | CN(C)C(=O)[C@@H](N)CNC(=O)c1ccc(-c2ccccc2C#N)nc1NCCc1cccc(F)c1 [(2S)-2-amino-3-[(6-(2-cyanophenyl)-2-{[2-(3-fluorophenyl)ethyl]amino}(3-pyridyl))carbonylamino]-N,N-dimethylpropanamide]
14 | 117 nM | CC[C@H](CNC(=O)c1cc(F)c(-c2cn[nH]c2)nc1NCCc1cccc(F)c1)C(=O)OC [methyl (2R)-2-{[(5-fluoro-2-{[2-(3-fluorophenyl)ethyl]amino}-6-pyrazol-4-yl(3-pyridyl))carbonylamino]methyl}butanoate]
15 | 9 nM | N#Cc1ccccc1-c1ccc(C(=O)NCc2cccc(CN)n2)c(NCCc2cccc(F)c2)n1 [N-{[6-(aminomethyl)(2-pyridyl)]methy}(6-(2-cyanophenyl)-2-{[2-(3-fluorophenyl)ethyl]amino}(3-pyridyl))carboxamide]
16 | 713 nM | COC(=O)CCCNC(=O)c1ccc(-c2ccccc2C#N)nc1NCCc1cccc(F)c1 [methyl 4-[(6-(2-cyanophenyl)-2-{[2-(3-fluorophenyl)ethyl]amino}-3-pyridyl)carbonylamino]butanoate]
17 | 5380 nM | O=C(NCc1cccnc1)c1ccc(-c2ccccn2)nc1NCCc1ccccn1 [N-(3-pyridylmethyl){6-(2-pyridyl)-2-[(2-(2-pyridyl)ethyl)amino](3-pyridyl)}carboxamide]
18 | 559 nM | O=C(NCc1cccnc1)c1ccc(-c2ccccc2)nc1NCC(O)c1cccc(F)c1 (stereo not drawn) [(2-{[2-(3-fluorophenyl)-2-hydroxyethyl]amino}-6-phenyl(3-pyridyl))-N-(3-pyridylmethyl)carboxamide]
19 | 755 nM | N#Cc1ccccc1-c1ccc(C(=O)NC[C@@H]2CCCN(C(=O)CN)C2)c(NCCc2cccc(F)c2)n1 [N-{[(3S)-1-(2-aminoacetyl)(3-piperidyl)]methyl}(6-(2-cyanophenyl)-2-{[2-(3-fluorophenyl)ethyl]amino}(3-pyridyl))carboxamide]

Row | Structure (SMILES) | IC50
20 | CC(C)(C)OC(=O)NC[C@H](NC(=O)c1ccc(-c2ccccc2C#N)nc1NCCc1cccc(F)c1)C(=O)O [(2S)-3-[(tert-butoxy)carbonylamino]-2-[(6-(2-cyanophenyl)-2-{[2-(3-fluorophenyl)ethyl]amino}(3-pyridyl))carbonylamino]propanoic acid] | 30400 nM
21 | COC(=O)[C@@H](CNC(=O)c1cc(F)c(-c2cnn(C)c2)nc1NCCc1cccc(F)c1)NC(=O)OC(C)(C)C [methyl (2R)-2-[(tert-butoxy)carbonylamino]-3-[(5-fluoro-2-{[2-(3-fluorophenyl)ethyl]amino}-6-(1-methylpyrazol-4-yl)(3-pyridyl))carbonylamino]propanoate] | 90800 nM
22 | CC(C)(C)OC(=O)NCCCN1CCC[C@@H]1CNC(=O)c1ccc(-c2ccccc2C#N)nc1NCCc1cccc(F)c1 [N-[((2R)-1-{3-[(tert-butoxy)carbonylamino]propyl}pyrrolidin-2-yl)methyl](6-(2-cyanophenyl)-2-{[2-(3-fluorophenyl)ethyl]amino}(3-pyridyl))carboxamide] | 1340 nM
23 | Cn1cc(-c2nc(NCCc3cccc(F)c3)c(C(=O)NC[C@H]3CCC(=O)N3CCCNC(=O)OC(C)(C)C)cc2C#N)cn1 [N-[3-((5R)-5-{[(5-cyano-2-{[2-(3-fluorophenyl)ethyl]amino}-6-(1-methylpyrazol-4-yl)(3-pyridyl))carbonylamino]methyl}-2-oxopyrrolidinyl)propyl](tert-butoxy)carboxamide] | 1150 nM
24 | CC(C)(C)OC(=O)N[C@@H](CO)C(=O)N1CCC[C@@H]1CNC(=O)c1cc(F)c(-c2cn[nH]c2)nc1NCCc1cccc(F)c1 [N-[((2R)-1-{(2S)-2-[(tert-butoxy)carbonylamino]-3-hydroxypropanoyl}pyrrolidin-2-yl)methyl](5-fluoro-2-{[2-(3-fluorophenyl)ethyl]amino}-6-pyrazol-4-yl(3-pyridyl))carboxamide] | 1000 nM
